Where “and” joins values, the source holds several entries; their conditions need not be identical. Equal values may be shown once. Read-outs that look alike come from different tables or passages of the source.
Test: Pharmacokinetic study in male CD1 mice
Type: in vivo, mouse
Conditions: for concentration at 0.033 h / concentration at 0.33 h / concentration at 1 h / concentration at 2 h / concentration at 4 h / concentration at 8 h / concentration at 24 h / AUC(0-t): male, CD1, mouse
Procedure: The pharmacokinetic (PK) profile in plasma of Compound 1 was determined in male CD1 mice following single dose intravenous (IV) (2 mg/kg) and per os (PO) (10 mg/kg) administration. This study was performed under non-GLP conditions, and unless otherwise stated, all analytical reagents were at least standard laboratory reagent grade, and deionized water was prepared at the study site. The characteristics of Compound 1 used in this study were as follows: molecular weight of base, 710.78; molecular weight of Compound 1 with salt, 824.81; purity on as is basis, 99.28%. All animals were housed in cages with clean bedding and maintained and monitored for good health and at the discretion of the laboratory animal veterinarian. Certified rodent diet was provided, and water was available ad libitum. […] Normal healthy animals certified by the attending veterinarian were selected and acclimatized for a minimum of three days prior to initiation of the study. Animals were identified by body markings. Test animals were weighed prior to drug administration, and the standard weight of the animals used was 30 grams. The animals were divided into two groups, IV group and PO group, with each group containing 3 test animals each and 2 spare animals. The IV dose was administered by intravenous injection into the tail vein and PO dose was administered via oral gavage. The dosing volume was 5 mL/kg body weight for both groups. The dosing concentration was 0.4 mg/mL for the IV group and 2 mg/mL for the PO group. The animals were in fasted state during the study. For both dosing groups, blood was collected from the saphenous vein (serial sampling) for plasma isolation at 0.033, 0.33, 1, 2, 4, 6, 8, and 24 hour timepoints. The anti-coagulant solution used was 6% (v/v) sodium citrate (200 mM, pH 4.79). For sample collection, the mice were restrained, and the back of the hind leg was shaved until the saphenous vein was visible. The hind limb was immobilized, and slight pressure was applied gently above the knee joint. While taking aseptic precautions, the vein was punctured using a 20 G needle and 20-30 μL of blood was collected in pre-labeled pre-chilled tubes. After blood collection from each animal, the sample from that animal was recorded in the sample collection sheet. After collection of each blood sample, the blood sample was stored on ice prior to centrifugation. Blood samples were centrifuged within 0.5 hours of collection to separate plasma. Centrifugation was conducted at 2500×g for 15 minutes at 4° C. The plasma was separated and transferred to pre-labeled micro-centrifuge tubes and promptly frozen at -80° C.±10° C. and stored until bioanalysis was performed. Each sample was identified by test compound, group, animal number, and collection time point. A fit-for-purpose bioanalytical method was developed for analyzing the plasma samples. One set of nine standards was run before the sample batch and was used for plotting the calibration curve. Quality control (QC) samples were prepared at a minimum of three concentrations, i.e., LQC (not more than 5 times to that of lowest standard concentration), HQC (not less than 75% of the highest standard concentration), and MQC (between the low and high concentration). A minimum of 6 QC samples were prepared (three concentrations in duplicate). One set of QC (LQC, MQC and HQC) samples were analyzed before and after the sample batch. Samples were analyzed by Exion AD (Sciex, Framingham, MA, USA) high-pressure liquid chromatography (HPLC) system followed by tandem mass spectroscopy analysis (MS/MS) with Q TRAP 4500 (Sciex, Framingham, MA). The samples were resolved on a Kinetex® EVO C18 4.5*50 mm, 5 μm column (Phenomenex, Inc., Torrance, CA, USA). […] The flow rate was set at 1 mL/min. […] A positive electrospray ionization (ESI) method was used for detecting analytes and internal standard by mass spectroscopy. The MRM conditions were […]

[1] = mouse, plasma, male CD1 mice, 2 mg/kg IV, Mean
[2] = mouse, plasma, male CD1 mice, 10 mg/kg PO, Mean

In the case of `COc1cc(-c2cn(C)c(=O)c(C)c2C)cc(OC)c1CN1CC[C@H](N2CCN(c3ccc(N[C@H]4CCC(=O)NC4=O)cc3F)CC2)C(F)(F)C1` [Compound 1, (S)-3-((4-(4-((S)-1-(2,6-dimethoxy-4-(1,4,5-trimethyl-6-oxo-1,6-dihydropyridin-3-yl)benzyl)-3,3-difluoropiperidin-4-yl)piperazin-1-yl)-3-fluorophenyl)amino)-piperidine-2,6-dione], the “Plasma Concentration, individual mice” value (2 mg/kg IV, 0.033 h) is reported as 1282.85 ng/mL and 1230.25 ng/mL, the “Plasma Concentration, individual mice” value (2 mg/kg IV, 0.33 h) is reported as 1069.92 ng/mL and 907.03 ng/mL and the “Plasma Concentration, individual mice” value (2 mg/kg IV, 1 h) is reported as 778.91 ng/mL and 554.87 ng/mL. The “Plasma Concentration, individual mice” value (2 mg/kg IV, 2 h) was 530.20 ng/mL and 551.12 ng/mL, the “Plasma Concentration, individual mice” value (2 mg/kg IV, 4 h) was 402.36 ng/mL and 398.41 ng/mL and the “Plasma Concentration, individual mice” value (2 mg/kg IV, 8 h) was 230.84 ng/mL and 279.05 ng/mL. The “Plasma Concentration, individual mice” value (2 mg/kg IV, 24 h) was 8.14 ng/mL and 10.81 ng/mL, the “Plasma Concentration, individual mice” value (10 mg/kg PO, 0.033 h) was 113.39 ng/mL and 45.23 ng/mL and 29.34 ng/mL and the “Plasma Concentration, individual mice” value (10 mg/kg PO, 0.33 h) was 1350.89 ng/mL and 1805.33 ng/mL. For the same molecule, the “Plasma Concentration, individual mice” value (10 mg/kg PO, 1 h) was 3702.63 ng/mL and 3513.39 ng/mL, the “Plasma Concentration, individual mice” value (10 mg/kg PO, 2 h) was 3236.77 ng/mL and 3069.59 ng/mL and the “Plasma Concentration, individual mice” value (10 mg/kg PO, 4 h) was 1775.48 ng/mL and 1635.06 ng/mL. The “Plasma Concentration, individual mice” value (10 mg/kg PO, 8 h) was 1094.97 ng/mL and 687.92 ng/mL, the “Plasma Concentration, individual mice” value (10 mg/kg PO, 24 h) was 40.19 ng/mL and 35.09 ng/mL and the CI (male CD1 mice, 2 mg/kg IV, Mean) was 6.201 mL/min/kg. For the same molecule, the concentration at 0.033 h (plasma, intravenous, 2 mg/kg, 2 mg/kg IV, 0.033 h, read-out: Plasma Concentration, Average) was 1400 ng/mL, the concentration at 0.033 h (plasma, intravenous, 2 mg/kg, 2 mg/kg IV, 0.033 h, read-out: Plasma Concentration, individual mice) was 1690 ng/mL and the concentration at 0.33 h (plasma, intravenous, 2 mg/kg, 2 mg/kg IV, 0.33 h, read-out: Plasma Concentration, Average) was 1090 ng/mL. The concentration at 0.33 h (plasma, intravenous, 2 mg/kg, 2 mg/kg IV, 0.33 h, read-out: Plasma Concentration, individual mice) was 1300 ng/mL, the concentration at 1 h (plasma, intravenous, 2 mg/kg, 2 mg/kg IV, 1 h, read-out: Plasma Concentration, Average) was 760 ng/mL and the concentration at 1 h (plasma, intravenous, 2 mg/kg, 2 mg/kg IV, 1 h, read-out: Plasma Concentration, individual mice) was 947 ng/mL. For the same molecule, the concentration at 2 h (plasma, intravenous, 2 mg/kg, 2 mg/kg IV, 2 h, read-out: Plasma Concentration, Average) was 630 ng/mL, the concentration at 2 h (plasma, intravenous, 2 mg/kg, 2 mg/kg IV, 2 h, read-out: Plasma Concentration, individual mice) was 809 ng/mL and the concentration at 4 h (plasma, intravenous, 2 mg/kg, 2 mg/kg IV, 4 h, read-out: Plasma Concentration, Average) was 456 ng/mL. It also gave a concentration at 4 h (plasma, intravenous, 2 mg/kg, 2 mg/kg IV, 4 h, read-out: Plasma Concentration, individual mice) of 567 ng/mL, a concentration at 8 h (plasma, intravenous, 2 mg/kg, 2 mg/kg IV, 8 h, read-out: Plasma Concentration, Average) of 256 ng/mL and a concentration at 8 h (plasma, intravenous, 2 mg/kg, 2 mg/kg IV, 8 h, read-out: Plasma Concentration, individual mice) of 257 ng/mL. The concentration at 24 h (plasma, intravenous, 2 mg/kg, 2 mg/kg IV, 24 h, read-out: Plasma Concentration, Average) was 10.2 ng/mL, the concentration at 24 h (plasma, intravenous, 2 mg/kg, 2 mg/kg IV, 24 h, read-out: Plasma Concentration, individual mice) was 11.5 ng/mL and the AUC(0-t) (plasma, iv, 2 mg/kg, male CD1 mice, 2 mg/kg IV, Mean) was 5390 ng·h/mL. For the same molecule, the concentration at 0.033 h (plasma, oral, 10 mg/kg, 10 mg/kg PO, 0.033 h, read-out: Plasma Concentration, Average) was 62.7 ng/mL, the concentration at 0.33 h (plasma, oral, 10 mg/kg, 10 mg/kg PO, 0.33 h, read-out: Plasma Concentration, Average) was 1750 ng/mL and the concentration at 0.33 h (plasma, oral, 10 mg/kg, 10 mg/kg PO, 0.33 h, read-out: Plasma Concentration, individual mice) was 2100 ng/mL. The concentration at 1 h (plasma, oral, 10 mg/kg, 10 mg/kg PO, 1 h, read-out: Plasma Concentration, Average) was 3370 ng/mL, the concentration at 1 h (plasma, oral, 10 mg/kg, 10 mg/kg PO, 1 h, read-out: Plasma Concentration, individual mice) was 2890 ng/mL and the concentration at 2 h (plasma, oral, 10 mg/kg, 10 mg/kg PO, 2 h, read-out: Plasma Concentration, Average) was 3150 ng/mL. It also gave a concentration at 2 h (plasma, oral, 10 mg/kg, 10 mg/kg PO, 2 h, read-out: Plasma Concentration, individual mice) of 3150 ng/mL, a concentration at 4 h (plasma, oral, 10 mg/kg, 10 mg/kg PO, 4 h, read-out: Plasma Concentration, Average) of 1770 ng/mL and a concentration at 4 h (plasma, oral, 10 mg/kg, 10 mg/kg PO, 4 h, read-out: Plasma Concentration, individual mice) of 1880 ng/mL. For the same molecule, the concentration at 8 h (plasma, oral, 10 mg/kg, 10 mg/kg PO, 8 h, read-out: Plasma Concentration, Average) was 983 ng/mL, the concentration at 8 h (plasma, oral, 10 mg/kg, 10 mg/kg PO, 8 h, read-out: Plasma Concentration, individual mice) was 1170 ng/mL and the concentration at 24 h (plasma, oral, 10 mg/kg, 10 mg/kg PO, 24 h, read-out: Plasma Concentration, Average) was 37.8 ng/mL. The concentration at 24 h (plasma, oral, 10 mg/kg, 10 mg/kg PO, 24 h, read-out: Plasma Concentration, individual mice) was 38.2 ng/mL, the AUC(0-t) (plasma, po, 10 mg/kg, male CD1 mice, 10 mg/kg PO, Mean, first AUClast column) was 20000 ng·h/mL and the AUC(0-t) (plasma, po, 10 mg/kg, male CD1 mice, 10 mg/kg PO, Mean, second AUClast column) was 20200 ng·h/mL. For the same molecule, the AUC(0-inf) [1] was 5450 ng·h/mL, the C0 [1] was 1440 ng/mL and the MRT last [1] was 5.15 h. The half-life [1] was 3.65 h, the Vd (mouse, plasma, male CD1 mice, 2 mg/kg IV, Mean, read-out: Vdss) was 2.01 L/kg and the Cmax [2] was 3460 ng/mL. The MRT last [2] was 5.38 h, the Tmax [2] was 1.33 h and the bioavailability [2] was 74.1%. For the same molecule, the half-life [2] was 3.54 h.

— patent US20240245677A1, “SELECTED COMPOUNDS FOR TARGETED DEGRADATION OF BRD9” (C4 THERAPEUTICS, INC., priority 2021, published 2024)
